# Measured values taken from patent US20130090385A1, “NOVEL SPECIFIC CASPASE-10 INHIBITORS” (MERCK PATENT GESELLSCHAFT MIT BESCHRANKTER HAFTUNG, priority 2005, published 2013).
# Read-outs that look alike come from different tables or passages of the source.
# What was measured:
# [1] = target: T1, Recombinant human caspase-9 (Homo sapiens, UniProt P55211); test: delayed-time fluorescence caspase inhibition test, caspase-9
# T1 sequence (P55211 1-416): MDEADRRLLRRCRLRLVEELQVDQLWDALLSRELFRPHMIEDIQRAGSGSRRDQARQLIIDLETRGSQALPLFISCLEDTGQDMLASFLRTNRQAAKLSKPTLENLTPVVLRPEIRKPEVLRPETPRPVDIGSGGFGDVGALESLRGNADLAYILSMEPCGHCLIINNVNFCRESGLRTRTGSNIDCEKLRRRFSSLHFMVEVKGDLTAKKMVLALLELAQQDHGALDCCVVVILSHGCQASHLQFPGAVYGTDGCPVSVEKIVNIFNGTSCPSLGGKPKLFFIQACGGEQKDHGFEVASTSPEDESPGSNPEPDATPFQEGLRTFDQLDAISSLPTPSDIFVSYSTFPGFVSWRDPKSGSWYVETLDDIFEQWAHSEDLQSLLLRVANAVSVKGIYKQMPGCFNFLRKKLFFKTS
# Protocol: (§1) The substrate used is a tetrapeptide specific to this caspase, having at one of its ends a fluorescent europium marker (W1284) and at the other end a europium chelate fluorescence quencher (QSy-7): Eu-W1284-CIETDK-QSy-7.
# (§2) The caspase cleaves the substrate, releasing the quencher. Thus, by excitation at 340 nm, the signal emitted by the fluorescence of the europium is read by WALLAC Victor^2 reader at 615 nm.
# (§3) They are ready for use or may be divided into aliquots and stored at −80° C.. […] 20 μl of this solution are distributed per well of the assay plate. […] The assay is performed with 1 U of enzyme per well, by distributing 20 μl of the diluted solution per well. • The standard inhibitors: The standard inhibitors are dissolved in DMSO to a concentration of 10 mM. They are tested at IC20 and at IC50 on the caspases they inhibit (see following table).
# (§4) They are then distributed in the wells using this solution to reach the final concentration of IC20 or IC50, i.e. 3 μl in 33 μl of final reaction volume (dilution 1/11). Thus, the final concentration of DMSO in the well is 0.3% (v/v) final. […] An intermediate dilution (1/6.6) is prepared in DMSO by diluting 10 μl of the concentrated solution in 66 μl of DMSO (final volume). […] The inhibitors are then distributed in the wells to reach the final screening concentration (10 μM), i.e. 3 μl in 33 μl of final reaction volume (dilution 1/11) and a final concentration of DMSO of 0.3% (v/v) in the well. • Protocol:
# (§5) The incubation takes place for 3 hours 30 minutes at room temperature before reading the fluorescence in delayed time on the WALLAC Victor^2 reader with the filters corresponding to the fluorescence of europium (excitation filter: 340 nm, emission filter: 615 nm).
# (§6) The inhibitors are diluted using solutions with concentrations of less than 20 mM in DMSO, and then prediluted in the caspase buffer. […] The specificity factor for caspase-10 is calculated as the following ratio:
# [2] = target: T2, Recombinant human caspase-3 (Homo sapiens, UniProt P42574); test: delayed-time fluorescence caspase inhibition test, caspase-3
# T2 sequence (P42574 29-277): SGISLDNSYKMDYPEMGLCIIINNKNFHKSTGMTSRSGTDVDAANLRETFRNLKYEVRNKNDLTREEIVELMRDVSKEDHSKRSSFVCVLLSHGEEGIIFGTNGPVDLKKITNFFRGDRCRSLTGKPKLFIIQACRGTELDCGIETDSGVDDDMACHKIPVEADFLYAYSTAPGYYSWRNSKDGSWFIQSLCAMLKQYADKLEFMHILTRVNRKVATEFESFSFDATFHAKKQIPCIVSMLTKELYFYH
# Protocol: as §1, §2
# 20 μl of this solution are distributed per well of the assay plate. […] The assay is performed with 1 U of enzyme per well, by distributing 20 μl of the diluted solution per well. • The standard inhibitors: The standard inhibitors are dissolved in DMSO to a concentration of 10 mM. They are tested at IC20 and at IC50 on the caspases they inhibit (see following table). The concentrations mentioned in the table are the final concentrations in the assay wells.
# as §4
# The volumes and the protocol were optimised for automated use.
# as §5
# The inhibitors are diluted using solutions with concentrations of less than 20 mM in DMSO, and then prediluted in the caspase buffer.
# [3] = target: Recombinant human caspase-8 (Homo sapiens, UniProt Q14790); test: delayed-time fluorescence caspase inhibition test, caspase-8
# Recombinant human caspase-8, sequence (Q14790 217-479): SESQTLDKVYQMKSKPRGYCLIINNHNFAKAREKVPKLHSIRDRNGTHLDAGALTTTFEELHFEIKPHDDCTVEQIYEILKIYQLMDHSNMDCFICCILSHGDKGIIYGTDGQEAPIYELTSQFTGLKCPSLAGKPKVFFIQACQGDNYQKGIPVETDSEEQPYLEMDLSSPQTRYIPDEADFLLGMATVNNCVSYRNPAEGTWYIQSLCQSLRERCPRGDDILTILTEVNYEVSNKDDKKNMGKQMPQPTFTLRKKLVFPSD
# Protocol: as §1, §2, §3, §4, §5, §6
# [4] = target: T3, Recombinant human caspase-2 (Homo sapiens, UniProt P42575); test: delayed-time fluorescence caspase inhibition test, caspase-2
# T3 sequence (P42575 1-452): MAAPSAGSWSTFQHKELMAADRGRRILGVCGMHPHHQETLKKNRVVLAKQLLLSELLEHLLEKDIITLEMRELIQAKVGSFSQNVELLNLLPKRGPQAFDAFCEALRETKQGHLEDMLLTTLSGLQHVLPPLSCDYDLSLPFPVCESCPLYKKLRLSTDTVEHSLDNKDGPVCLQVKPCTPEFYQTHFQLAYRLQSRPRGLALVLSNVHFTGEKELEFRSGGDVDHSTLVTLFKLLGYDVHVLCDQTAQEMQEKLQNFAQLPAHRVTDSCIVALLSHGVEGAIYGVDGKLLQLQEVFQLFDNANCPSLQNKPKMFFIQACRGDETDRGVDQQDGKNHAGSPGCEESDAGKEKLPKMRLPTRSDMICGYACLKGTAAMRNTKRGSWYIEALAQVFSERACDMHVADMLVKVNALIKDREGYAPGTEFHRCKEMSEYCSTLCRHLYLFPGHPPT
# Protocol: as §1, §2, §3, §4, §5, §6
# [5] = target: T4, Recombinant human caspase-10 (Homo sapiens, UniProt Q92851); test: delayed-time fluorescence caspase inhibition test, caspase-10
# T4 sequence (Q92851 220-521): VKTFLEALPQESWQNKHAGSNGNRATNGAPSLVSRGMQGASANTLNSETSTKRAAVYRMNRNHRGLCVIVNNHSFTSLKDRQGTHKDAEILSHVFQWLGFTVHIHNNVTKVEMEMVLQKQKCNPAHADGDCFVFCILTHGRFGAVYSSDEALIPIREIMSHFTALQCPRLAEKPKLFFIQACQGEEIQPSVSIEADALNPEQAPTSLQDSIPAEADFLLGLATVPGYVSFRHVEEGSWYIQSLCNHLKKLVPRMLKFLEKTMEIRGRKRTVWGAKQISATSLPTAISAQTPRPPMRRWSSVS
# Protocol: as §1, §2, §3, §4, §5, §6
# [6] = target: T5, Recombinant human caspase-6 (Homo sapiens, UniProt P55212); test: delayed-time fluorescence caspase inhibition test, caspase-6
# T5 sequence (P55212 24-293): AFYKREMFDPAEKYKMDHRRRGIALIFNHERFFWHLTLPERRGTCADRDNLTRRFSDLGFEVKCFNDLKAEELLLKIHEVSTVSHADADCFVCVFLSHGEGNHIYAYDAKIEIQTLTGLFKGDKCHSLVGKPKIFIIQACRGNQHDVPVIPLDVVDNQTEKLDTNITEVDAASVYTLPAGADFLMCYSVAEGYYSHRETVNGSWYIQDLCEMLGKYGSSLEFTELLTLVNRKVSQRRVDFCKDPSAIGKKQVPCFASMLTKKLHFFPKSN
# Protocol: as §1, §2, §3, §4, §5, §6
SMILES,IC50 [1],IC50 [2],IC50 [3],IC50 [4],IC50 [5],IC50 [6],"IC50 ([1]; read-out: Inhibition IC50 Caspase-9, tested 100 nM to 200 μM, 1% DMSO, 3 h 30 min at room temperature)","IC50 ([2]; read-out: Inhibition IC50 Caspase-3, tested 100 nM to 200 μM, 1% DMSO, 3 h 30 min at room temperature)","IC50 ([3]; read-out: Inhibition IC50 Caspase-8, tested 100 nM to 200 μM, 1% DMSO, 3 h 30 min at room temperature)","IC50 ([4]; read-out: Inhibition IC50 Caspase-2, tested 100 nM to 200 μM, 1% DMSO, 3 h 30 min at room temperature)","IC50 ([5]; read-out: Inhibition IC50 Caspase-10, tested 100 nM to 200 μM, 1% DMSO, 3 h 30 min at room temperature)","IC50 ([6]; read-out: Inhibition IC50 Caspase-6, tested 100 nM to 200 μM, 1% DMSO, 3 h 30 min at room temperature)"
O=S(=O)(NCC1(Cc2ccc(CCO)cc2)CCCC1)c1ccc2ccccc2c1 [Example 51],> 200 µM,> 200 µM,> 200 µM,> 200 µM,0.281 µM,> 200 µM,,,,,,
O=[N+]([O-])c1ccc(S(=O)(=O)NCC2(Cc3ccc(CCO)cc3)CCCC2)cc1 [Example 52],> 200 µM,> 200 µM,> 200 µM,> 200 µM,3.69 µM,> 200 µM,,,,,,
O=S(=O)(NCC1(Cc2ccc(CCO)cc2)CCC1)c1ccc(Cl)cc1 [Example 56],> 200 µM,> 200 µM,> 200 µM,> 200 µM,0.989 µM,> 200 µM,,,,,,
Cc1ccc(S(=O)(=O)NCC2(Cc3ccc(CCO)cc3)CCC2)cc1 [Example 57],> 200 µM,> 200 µM,> 200 µM,> 200 µM,3.05 µM,> 200 µM,,,,,,
O=S(=O)(NCC1(Cc2ccc(CCO)cc2)CCCC1)c1c(F)c(F)c(F)c(F)c1F [Example 58],46.7 µM,> 200 µM,> 200 µM,> 200 µM,0.143 µM,> 200 µM,,,,,,
Cc1ccc(S(=O)(=O)NCC2(Cc3ccc(CCO)cc3)CCCC2)cc1 [Example 59],> 200 µM,> 200 µM,> 200 µM,> 200 µM,4.06 µM,> 200 µM,,,,,,
O=S(=O)(NCC1(Cc2ccc(CCO)cc2)CCCC1)c1cc(F)c(F)c(F)c1 [Example 61],> 200 µM,> 200 µM,> 200 µM,> 200 µM,1.79 µM,> 200 µM,,,,,,
O=S(=O)(NCC1(Cc2ccc(CCO)cc2)CCCC1)c1cc(Cl)cc(Cl)c1 [Example 62],> 200 µM,> 200 µM,> 200 µM,> 200 µM,6.22 µM,> 200 µM,,,,,,
Cc1cccc(S(=O)(=O)NCC2(Cc3ccc(CCO)cc3)CCCC2)c1 [Example 63],> 200 µM,> 200 µM,> 200 µM,> 200 µM,6.56 µM,> 200 µM,,,,,,
O=S(=O)(NCC1(Cc2ccc(CCO)cc2)CCCC1)c1ccc(Cl)c(C(F)(F)F)c1 [Example 65],> 25 µM,> 200 µM,> 200 µM,> 200 µM,0.25 µM,> 200 µM,,,,,,
O=S(=O)(NCC1(Cc2ccc(CCO)cc2)CCC1)c1c(F)c(F)c(F)c(F)c1F [Example 66],,,,,,,> 200 µM,> 200 µM,> 200 µM,> 200 µM,0.393 µM,> 200 µM
